# Experimental data: PubChem BioAssay (NCI)
#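 Growth conditions: 96-well plates. Treatment: test compound, 48 hours, 5 concentrations. Analysis: linear interpolation between bracketing concentrations; unreached endpoints set to highest concentration. GI50: concentration for 50% inhibition of growth. At the TGI there is no net growth.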
# Key:
# Test in all cases: growth of human tumour cells (NCI), 48 h
# CCRF-CEM leukemia = test system: CCRF-CEM leukemia
# OVCAR-8 ovarian = test system: OVCAR-8 ovarian
# MCF7 breast = test system: MCF7 breast
# HOP-92 NSCLC = test system: HOP-92 NSCLC
# SF-268 CNS = test system: SF-268 CNS
# 786-0 renal = test system: 786-0 renal
# TK-10 renal = test system: TK-10 renal
# HS 578T breast = test system: HS 578T breast
# K-562 leukemia = test system: K-562 leukemia
# HL-60(TB) leukemia = test system: HL-60(TB) leukemia
# NCI/ADR-RES ovarian = test system: NCI/ADR-RES ovarian
# SK-MEL-28 melanoma = test system: SK-MEL-28 melanoma
# COLO 205 colon = test system: COLO 205 colon
# SK-MEL-5 melanoma = test system: SK-MEL-5 melanoma
# SF-539 CNS = test system: SF-539 CNS
# HCT-15 colon = test system: HCT-15 colon
# SK-MEL-2 melanoma = test system: SK-MEL-2 melanoma
# CAKI-1 renal = test system: CAKI-1 renal
# A498 renal = test system: A498 renal
# BT-549 breast = test system: BT-549 breast
# MALME-3M melanoma = test system: MALME-3M melanoma
# A549 NSCLC = test system: A549 NSCLC
# MDA-MB-231 breast = test system: MDA-MB-231 breast
# UO-31 renal = test system: UO-31 renal
# SF-295 CNS = test system: SF-295 CNS
# NCI-H23 lung = test system: NCI-H23 lung
# OVCAR-3 ovarian = test system: OVCAR-3 ovarian
# UACC-257 melanoma = test system: UACC-257 melanoma
# HOP-62 NSCLC = test system: HOP-62 NSCLC
smiles,measurement,setting,value
COc1cc(NCCCCCN=C(N)N)c2ncccc2c1,GI50,CCRF-CEM leukemia,5.1 µM
same,TGI,CCRF-CEM leukemia,> 74.3 µM
same,GI50,OVCAR-8 ovarian,4.24 µM
same,TGI,OVCAR-8 ovarian,> 71.7 µM
same,GI50,MCF7 breast,0.179 µM
same,TGI,MCF7 breast,1.11 µM
same,GI50,HOP-92 NSCLC,2.69 µM
same,TGI,HOP-92 NSCLC,40.4 µM
same,GI50,SF-268 CNS,3.59 µM
same,TGI,SF-268 CNS,22.6 µM
same,GI50,786-0 renal,23.8 µM
same,TGI,786-0 renal,> 100 µM
same,GI50,TK-10 renal,3.43 µM
same,TGI,TK-10 renal,17.1 µM
same,GI50,HS 578T breast,19 µM
same,TGI,HS 578T breast,> 65.4 µM
same,GI50,K-562 leukemia,5.16 µM
same,TGI,K-562 leukemia,> 88.2 µM
same,GI50,HL-60(TB) leukemia,3.46 µM
same,TGI,HL-60(TB) leukemia,15.2 µM
same,GI50,NCI/ADR-RES ovarian,> 100 µM
same,TGI,NCI/ADR-RES ovarian,> 100 µM
same,GI50,SK-MEL-28 melanoma,14.6 µM
same,TGI,SK-MEL-28 melanoma,38.6 µM
same,GI50,COLO 205 colon,2.92 µM
same,TGI,COLO 205 colon,9.3 µM
same,GI50,SK-MEL-5 melanoma,2.31 µM
same,TGI,SK-MEL-5 melanoma,6.86 µM
same,GI50,SF-539 CNS,4.68 µM
same,TGI,SF-539 CNS,19.4 µM
same,GI50,HCT-15 colon,43.9 µM
same,TGI,HCT-15 colon,> 100 µM
same,GI50,SK-MEL-2 melanoma,3.31 µM
same,TGI,SK-MEL-2 melanoma,16.1 µM
same,GI50,CAKI-1 renal,> 100 µM
same,TGI,CAKI-1 renal,> 100 µM
same,GI50,A498 renal,42.5 µM
same,TGI,A498 renal,> 100 µM
same,GI50,BT-549 breast,5.38 µM
same,TGI,BT-549 breast,18.5 µM
same,GI50,MALME-3M melanoma,1.97 µM
same,TGI,MALME-3M melanoma,8.92 µM
same,GI50,A549 NSCLC,30 µM
same,TGI,A549 NSCLC,> 100 µM
same,GI50,MDA-MB-231 breast,2.65 µM
same,TGI,MDA-MB-231 breast,12.3 µM
same,GI50,UO-31 renal,> 100 µM
same,TGI,UO-31 renal,> 100 µM
same,GI50,SF-295 CNS,17.1 µM
same,TGI,SF-295 CNS,97.8 µM
same,GI50,NCI-H23 lung,1.74 µM
same,TGI,NCI-H23 lung,18.9 µM
same,GI50,OVCAR-3 ovarian,0.468 µM
same,TGI,OVCAR-3 ovarian,9.03 µM
same,GI50,UACC-257 melanoma,4.38 µM
same,TGI,UACC-257 melanoma,16.7 µM
same,GI50,HOP-62 NSCLC,10.1 µM
same,TGI,HOP-62 NSCLC,> 93.4 µM
